Reference: patent US20240041042A1, “1-(PYRIDYL)-5-AZINYLPYRAZOLE DERIVATIVES, AND THEIR USE FOR CONTROL OF UNDESIRED PLANT GROWTH” (Bayer Aktiengesellschaft, priority 2020, published 2024)

Assays:
Type in all cases: in vivo
[1] = test system: Alopecurus myosuroides (ALOMY); assay: Post-emergence herbicidal action against ALOMY; details: visual rating about 3 weeks after treatment vs untreated controls (100% = plants have died, 0% = like control plants)
Outline: (§1)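 Greenhouse plants sprayed at the one-leaf stage, 2–3 weeks after sowing, with WP or EC formulations plus 0.5% additive at 600 l/ha water. Activity rated visually after about 3 weeks versus untreated controls (100% = dead, 0% = like control), at 320 g/ha or lower.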

[2] = test system: Matricaria inodora (MATIN); assay: Pre-emergence herbicidal action against MATIN
Outline: (§2)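 Dosages of 320 g/ha or less; pre-emergence; WP or EC in aqueous spray, 0.5% additive, 600 l/ha; greenhouse; visual % effect after ~3 wk relative to control pots.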

Avena fatua (AVEFA) [3] = assay: Pre-emergence herbicidal action against AVEFA; details: 320 g/ha, visual scoring after about 3 weeks vs untreated controls
Outline: as §2

Setaria viridis (SETVI) [4] = assay: Pre-emergence herbicidal action against SETVI
Outline: as §2

[5] = test system: Verconica persica (VERPE); assay: Post-emergence herbicidal action against VERPE
Outline: as §1

[6] = test system: Amaranthus retroflexus (AMARE); assay: Post-emergence herbicidal action against AMARE; details: 320 g/ha, visual rating about 3 weeks after treatment
Outline: as §1

[7] = test system: Matricaria inodora (MATIN); assay: Post-emergence herbicidal action against MATIN; details: dosage 320 g/ha
Outline: as §1

[8] = test system: Abutilon theophrasti (ABUTH); assay: Post-emergence herbicidal action against ABUTH; details: visual rating about 3 weeks after treatment vs untreated controls (100% = plants have died, 0% = like control plants)
Outline: as §1

Oryza sativa (ORYSA) [9] = details: pre-emergence, 80 g/ha, crop plant compatibility, in comparison to untreated controls
Outline: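 Crop injury rated visually in percent against untreated plants roughly 3 weeks after treatment (0% no effect, 100% plants dead). Compounds, as WP or EC with 0.5% additive in 600 l/ha water, were applied to the covering soil right after sowing; greenhouse growth. Suffixes a, b, c denote different dosages.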

Oryza sativa (ORYSA) [10] = details: crop plant compatibility, 80 g/ha, effect in comparison to untreated controls
Outline: (§3)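 Test crops were treated 2 to 3 weeks after sowing, once they reached one leaf, by spraying compound in water with 0.5% additive at 600 l/ha. Visual scoring compared them with untreated controls roughly 3 weeks on, and appendices a, b and c denote different doses.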

Zea mays (ZEAMX) = details: crop plant compatibility, 80 g/ha, effect vs untreated controls
Outline: as §3

Lolium rigidum (LOLRI) [11] = assay: Post-emergence herbicidal action against LOLRI
Outline: as §1

[12] = test system: Verconica persica (VERPE); assay: Pre-emergence herbicidal action against VERPE
Outline: as §2

Viola tricolor (VIOTR) [13] = assay: Post-emergence herbicidal action against VIOTR
Outline: as §1

[14] = test system: Pharbitis purpurea (PHBPU); assay: Post-emergence herbicidal action against PHBPU
Outline: as §1

[15] = test system: Amaranthus retroflexus (AMARE); assay: Pre-emergence herbicidal action against AMARE; details: visual scoring after about 3 weeks vs untreated controls
Outline: as §2

[16] = test system: Alopecurus myosuroides (ALOMY); assay: Pre-emergence herbicidal action against ALOMY; details: scored visually after about 3 weeks, 100% = plants have died
Outline: as §2

[17] = test system: Echinochloa crus-galli (ECHCG); assay: Pre-emergence herbicidal action against ECHCG
Outline: as §2

[18] = test system: Pharbitis purpurea (PHBPU); assay: Pre-emergence herbicidal action against PHBPU
Outline: as §2

[19] = test system: Echinochloa crus-galli (ECHCG); assay: Post-emergence herbicidal action against ECHCG
Outline: as §1

[20] = test system: Polygonum convolvulus (POLCO); assay: Post-emergence herbicidal action against POLCO
Outline: as §1

Lolium rigidum (LOLRI) [21] = assay: Pre-emergence herbicidal action against LOLRI
Outline: as §2

Viola tricolor (VIOTR) [22] = assay: Pre-emergence herbicidal action against VIOTR
Outline: as §2

Avena fatua (AVEFA) [23] = assay: Post-emergence herbicidal action against AVEFA; details: visual rating about 3 weeks after treatment
Outline: as §1

[24] = test system: Polygonum convolvulus (POLCO); assay: Pre-emergence herbicidal action against POLCO
Outline: as §2

Setaria viridis (SETVI) [25] = assay: Post-emergence herbicidal action against SETVI; details: dosage 320 g/ha
Outline: as §1

Pre-emergence action against ORYSA in % (Oryza sativa (ORYSA) [9])	Post-emergence action against ORYSA in % (Oryza sativa (ORYSA) [10])	SMILES	Post-emergence action against ALOMY in % ([1]; 80 g/ha)	Post-emergence action against ALOMY in % ([1]; 320 g/ha)	Pre-emergence action against MATIN in % ([2]; dosage 320 g/ha)	Pre-emergence action against AVEFA in % (Avena fatua (AVEFA) [3])	Pre-emergence action against SETVI in % (Setaria viridis (SETVI) [4]; dosage 320 g/ha)	Post-emergence action against VERPE in % ([5]; 320 g/ha, VERPE)	Post-emergence action against VERPE in % ([5]; dosage 80 g/ha)	Post-emergence action against AMARE in % [6]	Post-emergence action against ABUTH in % ([8]; 320 g/ha)	Pre-emergence action against VERPE in % ([12]; dosage 80 g/ha)	Pre-emergence action against VERPE in % ([12]; dosage 320 g/ha)	Post-emergence action against VIOTR in % (Viola tricolor (VIOTR) [13]; 320 g/ha)	Post-emergence action against PHBPU in % ([14]; dosage 80 g/ha)	Post-emergence action against PHBPU in % ([14]; dosage 320 g/ha)	Pre-emergence action against AMARE in % ([15]; 80 g/ha)	Pre-emergence action against AMARE in % ([15]; 320 g/ha)	Pre-emergence action against ALOMY ([16]; 80 g/ha)	Pre-emergence action against ALOMY ([16]; 320 g/ha)	other results
20%	20%	COC(=O)COc1nn(-c2nc(F)ccc2F)c(-c2ccc(F)nc2)c1Br [Example I-369]	80%	100%	90%	80%	90%	80%	80%	80%	80%	90%	90%	80%	80%	90%	90%	90%	80%	100%	Pre-emergence action against MATIN in % ([2]; dosage 80 g/ha): 80%; Post-emergence action against MATIN in % [7]: 80%; Post-emergence action against ZEAMX in % (Zea mays (ZEAMX)): 10%; Post-emergence action against LOLRI in % (Lolium rigidum (LOLRI) [11]; dosage 80 g/ha): 80%; Post-emergence action against LOLRI in % (Lolium rigidum (LOLRI) [11]; dosage 320 g/ha): 90%; Post-emergence action against VIOTR in % (Viola tricolor (VIOTR) [13]; 80 g/ha): 80%; Pre-emergence action against ECHCG in % ([17]; dosage 320 g/ha): 100%; Pre-emergence action against PHBPU in % ([18]; dosage 320 g/ha): 90%; Post-emergence action against ECHCG in % ([19]; dosage 80 g/ha): 80%; Post-emergence action against ECHCG in % ([19]; dosage 320 g/ha): 80%; Post-emergence action against POLCO in % ([20]; dosage 320 g/ha): 80%; Pre-emergence action against LOLRI in % (Lolium rigidum (LOLRI) [21]; dosage 320 g/ha): 90%; Pre-emergence action against VIOTR in % (Viola tricolor (VIOTR) [22]; 320 g/ha, Viola tricolor): 100%; Pre-emergence action against VIOTR in % (Viola tricolor (VIOTR) [22]; dosage 80 g/ha): 80%; Post-emergence action against AVEFA in % (Avena fatua (AVEFA) [23]; 320 g/ha): 80%; Pre-emergence action against POLCO in % ([24]; dosage 320 g/ha): 90%
20%	20%	O=C(O)COc1nn(-c2nc(F)ccc2F)c(-c2ccc(F)nc2)c1Cl [Example I-337]	90%	90%	90%	90%	100%	80%	80%	80%	80%	90%	90%	80%	90%	90%	90%	90%	80%	90%	Pre-emergence action against SETVI in % (Setaria viridis (SETVI) [4]; dosage 80 g/ha): 90%; Post-emergence action against ABUTH in % ([8]; 80 g/ha): 80%; Post-emergence action against ZEAMX in % (Zea mays (ZEAMX)): 10%; Post-emergence action against VIOTR in % (Viola tricolor (VIOTR) [13]; 80 g/ha): 80%; Pre-emergence action against ECHCG in % ([17]; dosage 80 g/ha): 80%; Pre-emergence action against ECHCG in % ([17]; dosage 320 g/ha): 90%; Pre-emergence action against PHBPU in % ([18]; dosage 80 g/ha): 80%; Pre-emergence action against PHBPU in % ([18]; dosage 320 g/ha): 80%; Post-emergence action against ECHCG in % ([19]; dosage 80 g/ha): 80%; Post-emergence action against ECHCG in % ([19]; dosage 320 g/ha): 90%; Post-emergence action against POLCO in % ([20]; dosage 80 g/ha): 80%; Post-emergence action against POLCO in % ([20]; dosage 320 g/ha): 80%; Pre-emergence action against LOLRI in % (Lolium rigidum (LOLRI) [21]; dosage 320 g/ha): 100%; Pre-emergence action against VIOTR in % (Viola tricolor (VIOTR) [22]; 320 g/ha, Viola tricolor): 100%; Pre-emergence action against VIOTR in % (Viola tricolor (VIOTR) [22]; dosage 80 g/ha): 80%; Post-emergence action against SETVI in % (Setaria viridis (SETVI) [25]): 80%; Post-emergence action against AVEFA in % (Avena fatua (AVEFA) [23]; 320 g/ha): 80%; Pre-emergence action against POLCO in % ([24]; dosage 80 g/ha): 80%; Pre-emergence action against POLCO in % ([24]; dosage 320 g/ha): 90%
20%	20%	CCOC(=O)[C@@H](C)Oc1nn(-c2nc(F)ccc2F)c(-c2ccc(F)nc2)c1Br [Example I-336]	90%	90%	90%	90%	100%	90%	80%	80%	80%	80%	90%	80%	90%	100%	90%	100%	80%	100%	Pre-emergence action against MATIN in % ([2]; dosage 80 g/ha): 80%; Post-emergence action against LOLRI in % (Lolium rigidum (LOLRI) [11]; dosage 80 g/ha): 80%; Post-emergence action against LOLRI in % (Lolium rigidum (LOLRI) [11]; dosage 320 g/ha): 80%; Pre-emergence action against ECHCG in % ([17]; dosage 80 g/ha): 80%; Pre-emergence action against ECHCG in % ([17]; dosage 320 g/ha): 100%; Pre-emergence action against PHBPU in % ([18]; dosage 320 g/ha): 80%; Post-emergence action against ECHCG in % ([19]; dosage 80 g/ha): 80%; Post-emergence action against ECHCG in % ([19]; dosage 320 g/ha): 80%; Post-emergence action against POLCO in % ([20]; dosage 320 g/ha): 80%; Pre-emergence action against LOLRI in % (Lolium rigidum (LOLRI) [21]; dosage 80 g/ha): 80%; Pre-emergence action against LOLRI in % (Lolium rigidum (LOLRI) [21]; dosage 320 g/ha): 100%; Pre-emergence action against VIOTR in % (Viola tricolor (VIOTR) [22]; 320 g/ha, Viola tricolor): 100%; Pre-emergence action against VIOTR in % (Viola tricolor (VIOTR) [22]; dosage 80 g/ha): 90%; Post-emergence action against SETVI in % (Setaria viridis (SETVI) [25]): 80%; Post-emergence action against AVEFA in % (Avena fatua (AVEFA) [23]; 80 g/ha): 80%; Post-emergence action against AVEFA in % (Avena fatua (AVEFA) [23]; 320 g/ha): 90%; Pre-emergence action against POLCO in % ([24]; dosage 80 g/ha): 80%; Pre-emergence action against POLCO in % ([24]; dosage 320 g/ha): 90%
